Tests used:
[1] = tested on: Col1a1 gene expression, primary human hepatic stellate cells; assay: Col1a1 gene expression in TGFβ1-stimulated primary human hepatic stellate cells; assay type: cell-based; conditions: primary human hepatic stellate cells, three healthy donors, TGFβ1 3 ng/mL 24 h; summary in words
Description: (§1) Primary human hepatic stellate cells were obtained from Samsara Sciences. Cells were grown in Complete HSC Medium to ˜80% confluence in T75 or T150 flasks below passage 10 were seeded into sterile, collagen I coated, 96-well optical plastic microplates (ThermoScientific, 152036) and incubated overnight at 37° C., 5% CO2 in a humidified incubator in DMEM with 2% Fetal Bovine Serum and 1% Antibiotic-Antimycotic. After the overnight incubation, plates are washed and pretreated with medium±single amino acid dropout, 1×HMDB DMEM±supplemental amino acid dose for 10.5 hours. After 10.5 hour pretreatment, the same pretreatment medium supplemented with 3 ng/mL TGFβ1, was applied and incubated for 24 hours at 37° C., 5% CO2. After 24 hour stimulus, supernatant was removed, RNA was extracted and gene expression was evaluated using the ΔΔCq method within each single amino acid dropout and supplementation by normalizing to its own 1×HMDB concentration.

[2] = tested on: LX-2 hepatic stellate cells; assay: TGFβ1-induced fibrogenic gene expression (Col1a1, Acta2, Timp2) in LX-2 hepatic stellate cells, qPCR; assay type: cell-based, human
Excerpt: Hepatic stellate cells in a healthy liver are in the space of Disse, between the hepatocytes and liver sinusoidal endothelial cells. In response to liver injury hepatic stellate cells become activated, proliferative and contractile, increase production of aSMA, secretion of type I and III collagens and specific MMP and TIMP proteins. LX-2 cells were selected as a model of activated hepatic stellate cells and used to test whether specific amino acid compositions would reduce fibrogenic gene expression induced with TGFβ1.
LX-2 hepatic stellate cells (Millipore) were seeded on day 0 at 1.67E4 cells per well in collagen I coated 96-well microplates (ThermoFisher) in Dulbecco's Modified Eagle Medium (DMEM, Corning) supplemented with 2% heat inactivated fetal bovine serum (HI-FBS, HyClone) and 0.2% Primocin (InVivoGen) and incubated overnight at 37° C., 5% CO2. […] Combinations containing N-acetylcysteine were dosed with 10 mM. Cells were pretreated for 6 hours at 37° C., 5% CO2. After pretreatment, TGFβ1 (R&D Systems) or vehicle was spiked into each well for a final concentration of 5 ng/mL and cells were incubated under this stimulus for a further 12 hours at 37° C., 5% CO2.
After 12 hour incubation, RNA extraction and quantitative PCR was conducted on lysates to determine collagen-1a1 expression normalized to β-actin housekeeping expression using the ΔΔCt method using TaqMan primer probes (Integrated DNA Technologies: Col1A1, Hs.PT.58.15517795; Actb, Hs.PT.39a.22214847; Acta2, Hs.PT.56a.24853961; Timp2, Hs.PT.58.14780594).

[3] = tested on: Hsp47 gene expression, primary human hepatic stellate cells; assay: Hsp47 gene expression in TGFβ1-stimulated primary human hepatic stellate cells; assay type: cell-based; conditions: primary human hepatic stellate cells, three healthy donors, TGFβ1 3 ng/mL 24 h; summary in words
Description: Primary human hepatic stellate cells were obtained from Samsara Sciences based on the following criteria for selecting donors: adult age (between 18 and 50 years), normal BMI (>18.5 and <25), and absence of confounding liver disease. Cells grown in Complete HSC Medium to ˜80% confluence in T75 or T150 flasks below passage 10 were seeded into sterile, collagen I coated, 96-well optical plastic microplates (ThermoScientific, 152036) at 6000 cells per well (1250 cells per cm2) and incubated overnight at 37° C., 5% CO2 in a humidified incubator in DMEM with 2% Fetal Bovine Serum and 1% Antibiotic-Antimycotic.
After the overnight incubation, plates were removed from the incubator and the medium was gently pipetted off and washed twice with 150 μL per well DPBS. The DPBS was removed and the pretreatment medium (±single amino acid dropout, 1×HMDB DMEM+1% Antibiotic-Antimycotic, 10 mM HEPES, ±supplemental amino acid dose; see experiment for medium composition) was applied to the cells at 150 μL per well. Plates were returned to the incubator for 10.5 hours.
After 10.5 hour pretreatment, the medium was removed from the cells, and the same pretreatment medium, now supplemented with 3 ng/mL TGFβ1, was applied. Each plate contained 3 ng/mL TGFβ1 in 1× human plasma amino acid (HMDB or PAA) concentration medium, 0 ng/mL in 1×HMDB, and 3 ng/mL TGFβ1+20 μM Silybin in 1×HMDB to serve as controls. Plates were then incubated for 24 hours at 37° C., 5% CO2.
After 24 hour stimulus, supernatant was removed and frozen at −80° C. in two separate aliquots. The cells were then washed with 125 μL per well Buffer FCW (FastLane Cell Multiplex NR Kit, Qiagen, 216713). The wash buffer was immediately removed and 50 μL of Cell Processing Mix (containing genomic DNA Wipeout buffer) was applied to lyse cells, incubating for 10 minutes at room temperature. RNA lysate was then transferred to 96-well qPCR plates, sealed, and gDNA was digested on thermal cycler at 75° C. for 5 minutes. RNA lysate was frozen at −80° C.
Each 20 μL one-step RT-qPCR reaction contained 4 μL of RNA lysate. Gene expression of Hsp47, and Gapdh were multiplexed using the HEX, and FAM fluorescent channels, respectively, with commercially available primer-probe mixes (the Human Hsp47 Primer-Probe Set, HEX; and the Human Gapdh Primer-Probe Set, FAM from IDT). Gene expression was evaluated using the ΔΔCq method within each single amino acid dropout and supplementation by normalizing to its own 1×HMDB concentration.

[4] = tested on: procollagen Iα1 secretion, primary human hepatic stellate cells; assay: Procollagen Iα1 secretion by TGFβ1-stimulated primary human hepatic stellate cells, ELISA; assay type: cell-based; conditions: primary human hepatic stellate cells, three healthy donors, TGFβ1 3 ng/mL 24 h; summary in words
Description: as §1
Human Procollagen 1α1 was measured from the supernatant by ELISA (Human ProCollagen I alpha 1 DuoSet ELISA, R&D Systems) at 1/100 dilution in 1× Reagent Diluent (Reagent Ancillary Kit 2, R&D Systems).
Tables 32, 33, 33-1, 33-2, 33-3, and 33-4 show the fold change in procollagen Iα1 in primary human hepatic stellate cells from three different healthy donors normalized to their respective baseline amino acid conditions. Statistical significance calculated by one-way

[5] = LX-2 cells with TGFβ1, individual amino acid at 1X HMDB derived concentration
[6] = LX-2 cells with TGFβ1, individual amino acid at 50X HMDB derived concentration
[7] = LX-2 cells, TGFβ1 5 ng/mL 12 h, combinations at 40× HMDB, N-acetylcysteine 10 mM, normalized to β-actin

| SMILES | Col1a1 gene expression [1] | Col1a1 gene expression, mean [2, 5] | Col1a1 gene expression, mean [2, 6] | Hsp47 gene expression [3] | procollagen Iα1 secretion [4] | Col1a1 gene expression, mean ([2]; LX-2 cells with TGFβ1, individual amino acid at 50X HMDB derived concentration, listed as cysteine) | Acta2 gene expression, mean [2, 7] | Timp2 gene expression, mean [2, 7] | Col1a1 gene expression, mean ([2]; LX-2 cells, TGFβ1 5 ng/mL 12 h, combinations at 40× HMDB, N-acetylcysteine 10 mM, normalized to β-actin (ΔΔCt)) | Col1a1 gene expression, mean ([2]; LX-2 cells, TGFβ1 5 ng/mL 12 h, combinations at 40× HMDB, N-acetylcysteine 10 mM, normalized to β-actin (ΔΔCt), listed as N-acetylcysteine) | Timp2 gene expression, mean ([2]; LX-2 cells, TGFβ1 5 ng/mL 12 h, combinations at 40× HMDB, N-acetylcysteine 10 mM, normalized to β-actin, listed as N-acetylcysteine) |
| --- | --- | --- | --- | --- | --- | --- | --- | --- | --- | --- | --- |
| N=C(N)NCCC[C@H](N)C(=O)O [ARG, arginine] | did not significantly change | 1.620 | 1.970 | significantly increased Hsp47 gene expression in two of three donors | significantly increased procollagen Iα1 secretion in two of three donors | – | – | – | – | – | – |
| N[C@@H](CS)C(=O)O [CYS, cysteine] | – | 2.491 | 1.695 | – | – | significant decrease | – | – | – | – | – |
| NC(=O)CC[C@H](N)C(=O)O [GLN, glutamine] | – | 2.340 | 2.194 | significantly increased Hsp47 gene expression in one of three donors | – | – | – | – | – | – | – |
| CC(C)C[C@H](N)C(=O)O [LEU, leucine] | – | 1.901 | 2.372 | did not significantly change | – | – | – | – | – | – | – |
| CC(=O)N[C@@H](CS)C(=O)O [NAC, N-acetylcysteine] | significantly reduced Col1a1 gene expression in all three donors | – | – | – | significantly decrease procollagen Iα1 secretion in two of the three donors | – | 0.647 | 1.076 | 1.659 | reduced | reduced |
